Patent US20200230205A1, “COMPOSITIONS AND METHODS FOR TREATING MYELIN DISORDERS” (CASE WESTERN RESERVE UNIVERSITY, priority 2017, published 2020)

Tested on: MOG35-55-induced EAE mice
Assay: MOG35-55-induced EAE mouse model, daily intraperitoneal ISP
Type: in vivo
Text: For induction of EAE, C57BL6/J female mice at 10-week-old of age were immunized with MOG35-55 together with complete Freund's adjuvant emulsion (Hooke Laboratories, MOG35-55 EAE Induction kit, EK-2110) according to the manufacturers' instruction. Using the EAE Induction Kit result in 98% successful disease induction. All EAE animals were monitored daily and scored using a clinical scale from 0 to 5 (0: no abnormality; 1: limp tail; 2: limp tail and hind legs weakness; 3: limp tail and complete paralysis of hind legs; 4, hind leg and partial front leg paralysis; 5: moribund. Once EAE mice scored for I or 3, they were randomly recruited into treatment group and vehicle group. For treatment group, 5-7 mice were given daily intraperitoneal injections of ISP (20 μg/day), or 5% DMSO in saline, 100 μl) for Vehicle group. Experiments were blinded and animals were scored daily. For ISP Onset: ISP treatment was given at onset of sickness scored by clinical scale. For ISP Peak: ISP treatment was given at peak of sickness scored by clinical scale
LFB staining was performed according to the manufacturer's instruction (#26681, Electron Microscopy Sciences). For spinal cord sections, 20 μm coronal sections were incubated in LFB solution in 56° C. overnight and then rinsed sequentially with 95% alcohol and distilled water. The sections were then in 0.1% lithium carbonate solution and followed dehydration with a series of gradated ethanol, cleared with Histoclear and mounted. A set of serial matched sections were imaged and analyzed. Images (5 to 6 sections/animal) were captured under light microscope. The demyelinated areas (lack of LFB staining) were quantified using ImageJ software. For EAE sections, demyelinated areas were measured and represented as a percentage of total area of spinal cord. For sections of LPC model, lesion volumes were calculated by the lesion area from serial sections throughout the entire lesion based on the equation for volume of cylinder (V=lesion area×length of lesion).
Mice were anesthetized with avertin and perfusion with PBS and 4% paraformaldehyde (PFA). Brain or spinal cord were dissected and post-fixed in 4% PFA overnight at 4° C. and equilibrated in 20% sucrose. 20 μm-thick sections were pretreated with Reveal Decloaker Solution (RV 1000M, Biocare Medical) for antigen retrieval according to the manufacturer's instructions. After blocking, sections were incubated with primary antibodies overnight at 4° C. and followed by appropriate secondary antibodies conjugated with Alexa fluorescence 488 or 594. The following primary antibodies were used: MBP (SMI-99P, Covance, 1:300), NeuF200 (N4142, Sigma, 1:250), CS-56 (C8035, Sigma, 1:250), CAT301 (MAB5284, Millipore, 1:250), versican (AB 1032, Millipore, 1:250), Iba1 (019-19741, WAKO, 1:250), GFAP (MAB360, Millipore, 1:250), Olig2 (AB9610, Millipore, 1:250), CC1 (OP80, Millipore, 1:250). For each staining, at least 3 individual animals/group were examined and images were captured with a Leica DFC500 fluorescence microscope. Staining was quantified using Image J software (US National Instisutes of Health, USA). Fluorescence intensity was calculated as percentages of the mean value of the naïve controls.
For ultrastructural analyses of myelination, anesthetized animals were perfused with 2% glutaraldehyde/4% paraformaldehyde in 0.1 M sodium carcodylate buffer, PH7.4 (Electron Microscopy Sciences). Lesioned areas of the LPC or EAE-induced spinal cords from ISP-treated or control animals were dissected and post-fixed in 1% OsO4 for 2 hrs. Coronal sections ([…]) of spinal cord or brain containing corpus callosum were prepared (Leica, Vibratome), dehydrated, stained with saturated uranyl acetate and embedded in a Poly/Bed812 resin (Polysciences Inc.). The 1 μm-thick sections were cut and stained with toluidine blue, and matched areas were selected for EM analysis. […]

[1] = 41 days following EAE induction

GRKKRRQRRRCDMAEHMERLKANDSLKLSQEYESI [ISP]
demyelination baseline (LFB) vs vehicle (18 days following EAE induction): not significantly different | GFAP (reactive astrocytes) immunofluorescence [1]: significant decreases | Iba1 (microglia/macrophages) immunofluorescence [1]: significant decreases | time until functional recovery was initially observed (EAE ISP Onset group, ISP 20 μg/mouse daily i.p., days of ISP administration): 10 to 12 days | clinical score (EAE ISP Onset group, several animals, after 20-22 days of ISP (~33 days post immunization)): 0.5-1 | clinical score (EAE ISP Peak group, ISP started at peak of sickness): improved significantly | percentage of CC1+ oligodendrocytes in lesions (EAE animals, 41 days): significantly enhanced | number of myelinated/remyelinated axons, electron microscopy (EAE-lesioned spinal cord vs vehicle): increase of myelinated/remyelinated axons | MBP immunostaining (ISP for 41 days vs control EAE animals): denser | lesion size, LFB myelin staining (Onset treated animals, spinal cord): especially reduced | Arginase-1 (M2 microglia marker) immunostaining (spinal cord of EAE mice): increased M2 microglia | iNOS (M microglia marker) immunostaining (spinal cord of EAE mice): decreased M microglia | MBP expression, western blot (spinal cord tissue of EAE mice): restoration of MBP expression | CSPG (Cat301, aggrecan) immunostaining (thoracic spinal cord, 41 days post-induction): markedly decreased
